According to patent US10238619B1, “Composition and method of using the same” (priority 2017, dated 2019):

Columns and labels:
[1] = test system: persistent (biofilm) form of Borrelia burgdorferi; experiment: effect on biofilm-like colonies, crystal violet staining; format: cell-based, Borrelia burgdorferi B31; settings: for susceptibility of biofilm: 0.3 mg/ml, 72 hours; for efficacy against biofilm compared with combinations (Mix 1 and Mix 2): individual ingredient 0.075 mg/ml
Experimental: (§1) Two Borrelia species, namely, Borrelia burgdorferi and Borrelia garinii were tested in this study. Low passage isolates of the B31 strain of B. burgdorferi and CIP103362 strain of B. garinii were obtained from the American Type Culture Collection (Manassas, Va.). The stocks of both species were cultured in commonly used conditions, i.e. medium such as Barbour-Stoner-Kelly H (BSK-H) supplemented with 6% rabbit serum (Sigma, St Louis, Mo.) without antibiotics at 33° C. with 5% CO2, in sterile screw-cap 15 mL polypropylene tubes with or without gentile shaking depends on type of experiment. B31 strain is an isolate from Ixodes dammini whereas CIP103362 strain is an isolate from Ixodes ricinus. Both strains are well known human pathogenic factors of Lyme disease. So far, Borrelia burgdorferi has been found in ticks from North America and Eurasia, while Borrelia garinii only in ticks in Eurasia.
(§2) The strains of B. burgdorferi and B. garinii were prepared for testing as described in the art (Sapi et al., 2011). Briefly, the strains were activated from original cryobank vials and inoculated into 10 mL BSK-H compete medium, and maintained at 33° C. For generation of homogeneous cultures of B. burgdorferi or B. garinii, bacterial cells were inoculated and maintained in a shaking incubator at 33° C. and 250 rpm, where there is no biofilm formation (Sapi et al., 2011; supported by own observation). For generation of biofilm-like colonies of B. burgdorferi or B. garinii, bacterial cells were inoculated in four-well chambers (BD Biosciences, Sparks, Md.) coated with rat-tail collagen type I and incubated for 1 week without shaking.
(§3) Evaluation of test compounds/mixtures on bacterial biofilm. Qualitative effect of the individual test compounds and their mixtures against biofilm-like colonies of B. burgdorferi and B. garinii was evaluated using commonly used and well accepted crystal violet (CV) staining method, according to protocol provided by Sapi et al. Briefly, 1×10^7 bacterial cells/mL from homogeneous cultures of spirochetes were grown on extracellular matrix proteins (i.e., collagen type I) coated four-well chambers and incubated for 1 week.
(§4) After the 1 week of incubation, biofilm-like colonies were treated with various compounds/mixtures. Control wells were treated with ethanol (i.e., 0.075-0.3 mg/ml) alone. For doxycycline, as a positive control, the final used concentration was 0.03% (v/v). The chambers were then incubated at 33° C. for 72 hours. The whole experiment was repeated three times for each strain and each concentration. Next, all wells were fixed with 500 μL of cold methanol-formalin (1:1) for 30 minutes and stained with 1 mL of crystal violet (0.1%) for 10 minutes. The biofilm-like colonies were carefully washed three times with 1×PBS and 1 mL of methanol was added to each well to extract a dye, which was measured at 595 nm wavelength.

[2] = test system: persistent (biofilm) form of Borrelia garinii; experiment: as above; format: cell-based, Borrelia garinii CIP103362; settings: for susceptibility of biofilm: 0.3 mg/ml, 72 hours; for efficacy against biofilm compared with combinations (Mix 1 and Mix 2): individual ingredient 0.075 mg/ml
Experimental: as §1, §2, §3, §4

[3] = test system: active (spirochete) form of Borrelia burgdorferi; experiment: bacteriostatic/bactericidal effect on spirochetes, LIVE/DEAD BacLight (SYTO9/IP) fluorescence; format: cell-based, Borrelia burgdorferi B31; settings: individual compound 0.3 mg/ml
Experimental: as §1, with “So far, Borrelia burgdorferi has been found in ticks from North America and Eurasia, while Borrelia garinii only in ticks in Eurasia.” left out
(§5) Evaluation of bacteriostatic and bactericidal effect of individual test compounds and their mixtures on test microorganisms. To determine what compound and/or mixture will have the bacteriostatic and/or bactericidal effect a fluorescence method was used according to Sapi et al. Briefly, 5×10^6 bacterial cells/mL of the homogenous bacterial suspension was inoculated into each sterile 1.8 mL test tightly caps screwed tubes containing 1 mL BSK-H medium, supplemented with the test compound/mixture of interest. […] The tubes were then incubated at 33° C. and viability was monitored at regular intervals for up to 72 hours. […]

[4] = test system: active (spirochete) form of Borrelia garinii; experiment: as above; format: cell-based, Borrelia garinii CIP103362; settings: individual compound 0.3 mg/ml
Experimental: as §1, with “So far, Borrelia burgdorferi has been found in ticks from North America and Eurasia, while Borrelia garinii only in ticks in Eurasia.” left out
as §5

SMILES | susceptibility of biofilm [1] | efficacy against biofilm compared with combinations (Mix 1 and Mix 2) [1] | susceptibility of biofilm [2] | efficacy against biofilm compared with combinations (Mix 1 and Mix 2) [2] | bactericidal effect ([3]; after 6 hours of incubation) [%] | bactericidal effect ([3]; after 24 hours of incubation) [%] | bactericidal effect ([4]; after 6 hours of incubation) [%] | bactericidal effect ([4]; after 24 hours of incubation) [%]
CC(C)=CCCC(C)=CC=O [citral] | susceptible | lower efficacy against biofilm than their combinations | susceptible | lower efficacy against biofilm than their combinations | – | – | – | –
C=CCc1ccc(O)c(OC)c1 [eugenol] | susceptible | lower efficacy against biofilm than their combinations | susceptible | lower efficacy against biofilm than their combinations | 50 | 100 | 50 | 100
CCCCC/C=C\C/C=C\CCCCCCCC(=O)O [linoleic acid] | – | lower efficacy against biofilm than their combinations | – | lower efficacy against biofilm than their combinations | – | – | – | –
C=C(C)[C@@H]1CC=C(C)C(=O)C1 [R-carvone] | – | lower efficacy against biofilm than their combinations | – | lower efficacy against biofilm than their combinations | – | – | – | –
